Data on four compounds can be found in publication PMC10486429, “Investigations Using Albumin Binders to Modify the Tissue Distribution Profile of Radiopharmaceuticals Exemplified with Folate Radioconjugates” (Cancers, 2023).

SMILES strings stand for the structures.

The nature of data set [1]: Blood clearance of 177Lu-DOTA-ALBs in FVB mice. Conditions: for Time to Reach 50% IA (T50%IA): blood activity, value at 3 min set as 100%. On the procedure:
Immunocompetent female mice (FVB) at the age of 5 to 6 weeks were purchased from Charles River Laboratories (Sulzfeld, Germany) and acclimatized upon arrival for at least 7 days. FVB mice were intravenously injected with ^177Lu-DOTA-ALBs (25 MBq, 1 nmol/mouse, 100 µL PBS containing 0.05% bovine serum albumin (BSA) and 25 μg L-ascorbic acid, n = 3−6 mice per radioligand) followed by the first blood sampling of 3 × 1 μL from a different tail vein 3 min after injection (set as t0). Additional blood samples were taken at defined time points after injection. All collected blood samples from individual mice were measured at the same time using a γ-counter (PerkinElmer Wallac Wizard 1480, Waltham, MA, USA) to obtain decay-corrected values. The counts were set in relation to the initial counts at t0 (set as 100%) to prepare clearance curves by plotting the percentage of retained activity in the blood (% IA) against the time. The blood clearance curves were investigated until the counts of the blood samples were below the linear detection range (Supplementary Materials Section S6). An analysis was performed using GraphPad Prism software (version 8.0) by fitting a non-linear regression curve (exponential, two-phase) to the data points to calculate the serum half-lives. The areas under the curves (AUC0–7days) were calculated by integrating the blood excretion curves over 7 days and setting into relation with the AUC0–7days value obtained for [^177Lu]Lu-DOTA-ALB-1 (set as 1.0) to obtain relative AUC0–7days values. […]
S6. Blood Clearance of 177Lu-DOTA-ALBs
Purpose: The 177Lu-labeled DOTA-ALBs were investigated in vivo in order to assess their blood clearance profile.
Methods: Female, immunocompetent FVB mice were obtained from Charles River Laboratories (Sulzfeld, Germany), at the age of 5–6 weeks and acclimatized for at least 7 days before the start of the in vivo studies. Blood clearance of 177Lu-labeled DOTA-ALBs were determined in n=3–6 mice per radioligand. The radiolabeled DOTA-ALBs ( 25 MBq/nmol) were formulated in PBS pH 7.4 containing 0.05% bovine serum albumin (BSA) and L-ascorbic acid (25 µg per 25 MBq) to prevent radiolytic degradation. Mice were intravenously injected with the respective 177Lu-labeled DOTA-ALB (25 MBq, 1 nmol, 100 µL per mouse). The blood clearance was determined by taking blood samples (3 × 1 µL) from the tail vein using 1 µL-capillaries at 3 min after injection (set as t0) as well as at various timepoints over the following 48 h. In the case of [177Lu]Lu-DOTA-ALB-1 and [177Lu]Lu-DOTA-ALB-3, blood sampling was additionally performed at later time points up to 3 and 7 days, respectively. The collected blood samples were measured in a γ-coun-ter (PerkinElmer, Wallac Wizard 1480, Waltham, MA, USA).

The subject of data set [2] is human serum albumin (HSA) in human blood plasma. Description: Ultrafiltration albumin-binding assay of 177Lu-DOTA-ALBs, human blood plasma. As to the method:
(§1) The relative affinities of ^177Lu-labeled DOTA-ALBs (50 MBq/nmol) to albumin in mouse and human blood plasma were determined using an ultrafiltration assay according to a previously described procedure (Supplementary Materials Section S5). A dry chemistry analyzer (DRI-CHEM 4000i, FUJIFILM, Japan) was used to determine the mouse serum albumin concentration (conc. MSA: ~550 µM) in mouse blood plasma (Rockland Immunochemicals, Inc., Pottstown, PA, USA, Lot No. 23248) and the human serum albumin concentration (conc. HSA: ~800 µM) in human blood plasma of a healthy volunteer (Stiftung Blutspende SRK Aargau-Solothurn, Aarau, Switzerland). The albumin-bound fraction of the radioligands was determined at variable molar concentration ratios of serum albumin to the respective radiolabeled DOTA-ALB using a blood plasma/PBS dilution series and a constant amount of ^177Lu-DOTA-ALBs (0.5 MBq; 0.01 nmol). The free (albumin-unbound) radioligand fraction was separated from the albumin-bound fraction using Centrifree filter devices (cut-off 10 kDa; Merck Millipore, Carrigtwohill, Ireland) to enable the calculation of the percentage of albumin-bound radioligand. […] The results were presented as average ± standard deviation (SD) of 3 independent experiments. […]
(§2) S5. Relative Albumin-binding Properties of 177Lu-DOTA-ALBs
(§3) Purpose: The relative albumin-binding affinities of the 177Lu-DOTA-ALBs were in-vestigated using mouse and human blood plasma.
(§4) Methods: Relative binding affinities of 177Lu-DOTA-ALBs to mouse (MSA) and hu-man (HSA) serum albumin in the respective blood plasma were determined using an ul-trafiltration assay according to a previously described procedure. In brief, an average MSA concentration of ⁓550 µM was measured for mouse blood plasma (Rockland Immu-nochemicals, Inc., Pottstown, PA, USA, Lot N° 23248), while an HSA concentration of ⁓800 µM was determined for human blood plasma (Stiftung Blutspende SRK Aargau-Solothurn, Aarau, Switzerland) using a dry chemistry analyzer (DRI-CHEM 4000i, FUJI-FILM, Japan). A fixed amount of the respective 177Lu-DOTA-ALB (50 MBq/nmol:, ~500 kBq, 25 µL, 0.01 nmol) was added to a defined volume (250 µL) of mouse and human […]
(§5) and 0.01 to 20000, respectively. […]
(§6) off 10 kDa; Merck Millipore, Carrigtwohill, Ireland). The albumin-bound fractions at the […]
(§7) the half-maximum binding (B50). The relative albumin-binding affinities were defined as […]
(§8) sented as average ± SD of 3 independent experiments.
(§9) Results: The results are reported in the main article.
(§10) S6. Blood Clearance of 177Lu-DOTA-ALBs […]
(§11) their blood clearance profile.
(§12) Blood clearance of 177Lu-labeled DOTA-ALBs were determined in n=3–6 mice per radioligand. The radiolabeled DOTA-ALBs ( […]
(§13) various timepoints over the following 48 h. […]
(§14) up to 3 and 7 days, respectively. […]

Data set [3] deals with mouse serum albumin (MSA) in mouse blood plasma. Description: Ultrafiltration albumin-binding assay of 177Lu-DOTA-ALBs, mouse blood plasma. On the procedure:
as §1, §2, §3, §4, §5, §6, §7, §8, §9, §10, §11, §12, §13, §14

The mark [4] stands for this setting: FVB mice, i.v., 25 MBq, 1 nmol, two-phase exponential fit of blood activity.

In the case of `O=C(O)CN1CCN(CC(=O)O)CCN(CC(=O)NCCC(=O)N[C@@H](CCCCNC(=O)c2ccc(CNC(=O)CCCCc3ccc(I)cc3)cc2)C(=O)O)CCN(CC(=O)O)CC1.[177Lu]` [[^177Lu]Lu-DOTA-ALB-25], the “Rel. Blood AUC0–7days” value in data set [1] (mouse, in vivo) stood at 0.3. In data set [1] (mouse, in vivo, iv), the “% Phase a” value was determined as 41%, the “% Phase b” value stood at 59%, the “Blood AUC0–7days” value is listed as 425 % IA× h and the “Half-Life Phase a” value was found to be 0.7 h. For the same compound, in data set [1] (mouse, in vivo, iv), the “Half-Life Phase b” value was 4.5 h. In data set [2], the “Fold higher albumin-binding affinity than [177Lu]Lu-DOTA-ALB-24” value is reported as ~ 3 fold. Further, the “Fold higher albumin-binding affinity than [177Lu]Lu-DOTA-ALB-24” value in data set [3] is ~ 5 fold.

As for `O=C(O)CN1CCN(CC(=O)O)CCN(CC(=O)NCCC(=O)N[C@@H](CCCCNC(=O)c2ccc(CNC(=O)CCCc3ccc(I)cc3)cc2)C(=O)O)CCN(CC(=O)O)CC1.[177Lu]` [[^177Lu]Lu-DOTA-ALB-3], the “Retention of activity in the blood” value is recorded as 100 % IA in data set [1] (FVB mice, 0 h p.i. (t0 set as 100%)); 81 ± 9 % IA in data set [1] (FVB mice, 1 h p.i.); 74 ± 16 % IA in data set [1] (FVB mice, 2 h p.i.); 71 ± 11 % IA in data set [1] (FVB mice, 4 h p.i.); 66 ± 10 % IA in data set [1] (FVB mice, 8 h p.i.); 45 ± 7 % IA in data set [1] (FVB mice, 24 h p.i.). Further, the “Retention of activity in the blood” value was 28 ± 5 % IA in data set [1] (FVB mice, 48 h p.i.); 19 ± 2 % IA in data set [1] (FVB mice, 72 h p.i.); 7 ± 2 % IA in data set [1] (FVB mice, 120 h p.i.); 5 ± 1 % IA in data set [1] (FVB mice, 144 h p.i.); 3 ± 1 % IA in data set [1] (FVB mice, 168 h p.i.). For the same compound, in data set [1] (setting [4]), the “Half-Life Phase a” value was 0.5 h. In addition, the “Half-Life Phase b” value in data set [1] (setting [4]) came out at 34 h. Moreover, the “Time to Reach 50% IA (T50%IA)” value in data set [1] (FVB mice, i.v.) is on record as ~ 24 h; in data set [1] (FVB mice, i.v., listed as 3), around 24 h. Moreover, the “Blood AUC0–7days” value in data set [1] (FVB mice, i.v., decay-corrected, over 7 days) is 3617 % IA× h. Besides, in data set [1] (FVB mice, i.v., share of Phase a in blood excretion curve), the “% Phase a” value was 23%. Further, the “% Phase b” value in data set [1] (FVB mice, i.v., share of Phase b in blood excretion curve) is recorded as 77%. Moreover, the “Albumin-binding affinity relative to [177Lu]Lu-DOTA-ALB-1” value in data set [2] was “almost no difference”. The results for the “Fold stronger albumin-binding affinity than [177Lu]Lu-DOTA-ALB-25” value in data set [2] and in data set [3] were ~ 4 fold and ~ 10 fold, respectively. Further, the “Fold increased albumin-binding affinity relative to [177Lu]Lu-DOTA-ALB-1” value in data set [3] was ~ 15 fold.

With `O=C(O)CN1CCN(CC(=O)O)CCN(CC(=O)NCCC(=O)N[C@@H](CCCCNC(=O)CCCCc2ccc(I)cc2)C(=O)O)CCN(CC(=O)O)CC1.[177Lu]` [[^177Lu]Lu-DOTA-ALB-24], the “Rel. Blood AUC0–7days” value in data set [1] (mouse, in vivo) turned out to be 0.08. In addition, in data set [1] (mouse, in vivo, iv), the “% Phase a” value came to 99%, the “% Phase b” value worked out at 1%, the “Blood AUC0–7days” value was 119 % IA× h and the “Half-Life Phase a” value is 0.8 h. Further, in data set [1] (mouse, in vivo, iv), the “Half-Life Phase b” value stood at 8.9 h.

For the compound `O=C(O)CN1CCN(CC(=O)O)CCN(CC(=O)NCCC(=O)N[C@@H](CCCCNC(=O)CCCc2ccc(I)cc2)C(=O)O)CCN(CC(=O)O)CC1.[177Lu]` [[^177Lu]Lu-DOTA-ALB-1], in data set [1] (mouse, in vivo), the “Rel. Blood AUC0–7days” value was found to be 1.0. Moreover, in data set [1] (mouse, in vivo, iv), the “% Phase a” value was determined as 33%, the “% Phase b” value amounted to 67%, the “Blood AUC0–7days” value is recorded as 1500 % IA× h and the “Half-Life Phase a” value came out at 0.006 h. Besides, in data set [1] (mouse, in vivo, iv), the “Half-Life Phase b” value is 16 h. In data set [2], the “Fold higher albumin-binding affinity than [177Lu]Lu-DOTA-ALB-24” value is ~ 10 fold. Moreover, the “Fold higher albumin-binding affinity than [177Lu]Lu-DOTA-ALB-24” value in data set [3] was ~ 3 fold.
